Test results as given in patent publication US20050276765A1, “Preventing skin damage” (priority 2004, published 2005).

What was measured:
back skin of mice = assay: Primary irritation score on clipped back skin of mice; format: in vivo, mice (FVB strain); conditions: for irritation category (0-4): 5 μl topical daily
Description: A third primary irritation experiment was performed. Back skin of mice (FVB strain, female, 7 weeks of age, n=3-4/group) was clipped of hair with an electric clipper and 5 μl of each solution was topically applied. The following day, irritation was evaluated according to five categories (0: no irritation, 1; slight irritation, 2:clear irritation, 3:strong irritation, 4:severe irritation) and 5 μl of each solution was topically applied. This procedure was continued for a total of five consecutive days.

mice ears = assay: Mouse ear thickness after a single UVB irradiation and topical application for five days
Description: Prior to the experiment, the thickness of mice ears (FVB strain, female, 7 weeks of age, n=3-4/group) was measured with a thickness gauge (Mitsutoyo Corp.). […] The following day, ear thickness of both ears was measured. This procedure was continued for five consecutive days.
In a second experiment, solution was applied to each ear after exposure to UVB irradiation. The following day, the thickness of both ears was measured. UVB irradiation was only applied once and solutions were administered a total of five times (once a day/consecutive five days).

hairless Skh-1 mice = assay: UVB-induced chronic skin damage: skin wrinkling score after 10 weeks; format: in vivo, mice (hairless Skh-1)
Description: Mice of groups 1 and 3 were exposed to UVB irradiation, using fluorescent lamps (Southern New England Ultraviolet). The height of the lamps was adjusted to deliver 0.35 mW/cm^2 at the dorsal skin surface of the mice. Samples were applied (100 μl) on the back of UVB irradiated and non-UVB irradiated mice. This procedure was repeated three times weekly for 10 weeks. […] The total cumulative dose of UVB was 6.54 J/cm^2.
After 10 weeks, skin wrinkling was evaluated by two independent persons according to five categories (0: no wrinkle; 1: slight wrinkle, 2: clear wrinkle, 3: strong wrinkle; 4: severe wrinkle).

Cn1c(=O)c2c(ncn2C)n(C)c1=O [caffeine]
irritation category (0-4) (back skin of mice; 0.5% caffeine in DMSO, day 0): 0 | irritation category (0-4) (back skin of mice; 0.5% caffeine in DMSO, day 1): 0 | irritation category (0-4) (back skin of mice; 0.5% caffeine in DMSO, day 2): 0 | irritation category (0-4) (back skin of mice; 0.5% caffeine in DMSO, day 3): 0 | irritation category (0-4) (back skin of mice; 0.5% caffeine in DMSO, day 4): 0 | irritation category (0-4) (back skin of mice; 0.5% caffeine in DMSO, day 5): 0 | irritation category (0-4) (back skin of mice; 0.5% caffeine in acetone, day 0): 0 | irritation category (0-4) (back skin of mice; 0.5% caffeine in acetone, day 1): 0 | irritation category (0-4) (back skin of mice; 0.5% caffeine in acetone, day 2): 0 | irritation category (0-4) (back skin of mice; 0.5% caffeine in acetone, day 3): 0 | irritation category (0-4) (back skin of mice; 0.5% caffeine in acetone, day 4): 0 | irritation category (0-4) (back skin of mice; 0.5% caffeine in acetone, day 5): 0 | irritation category (0-4) (back skin of mice; 1.2% caffeine in acetone, day 0): 0 | irritation category (0-4) (back skin of mice; 1.2% caffeine in acetone, day 1): 0 | irritation category (0-4) (back skin of mice; 1.2% caffeine in acetone, day 2): 0 | irritation category (0-4) (back skin of mice; 1.2% caffeine in acetone, day 3): 0 | irritation category (0-4) (back skin of mice; 1.2% caffeine in acetone, day 4): 0 | irritation category (0-4) (back skin of mice; 1.2% caffeine in acetone, day 5): 0 | irritation category (0-4) (back skin of mice; 2% caffeine in DMSO, day 0): 0 | irritation category (0-4) (back skin of mice; 2% caffeine in DMSO, day 1): 0 | irritation category (0-4) (back skin of mice; 2% caffeine in DMSO, day 2): 0 | irritation category (0-4) (back skin of mice; 2% caffeine in DMSO, day 3): 0 | irritation category (0-4) (back skin of mice; 2% caffeine in DMSO, day 4): 0 | irritation category (0-4) (back skin of mice; 2% caffeine in DMSO, day 5): 0 | irritation in mouse skin (back skin of mice; back skin, five consecutive days): did not cause irritation | primary irritancy (back skin) (back skin of mice; concentration of 2% in DMSO and 1.2% in acetone): did not have primary irritancy | ear thickness compared to solvents (DMSO or acetone) (mice ears; 2% in DMSO or 1.2% in acetone, with or without UVB): did not increase ear thickness | primary irritancy (ear) (mice ears; concentration of 2% in DMSO or 1.2% in acetone): did not have primary irritancy | UVB-induced wrinkle formation (hairless Skh-1 mice; 1.2% in acetone, topical, 10 weeks): effective at reducing UVB-induced wrinkle formation | skin wrinkling score, average (hairless Skh-1 mice; group 2: No UVB + 1.2% caffeine in acetone, 100 μl on back three times weekly, after 10 weeks, scale 0 no wrinkle to 4 severe wrinkle): 0
